For 19 molecules, IC50 results are on record in patent publication US9732070B2, “Protein kinase C inhibitors and uses thereof” (Rigel Pharmaceuticals, Inc., priority 2009, dated 2017).

The subject of the first assay is Human primary T cells. As to the kind of experiment: IL-2 ELISA, human primary T cell, anti-CD3+CD28 stimulation. The assay is classed as cell-based. Conditions: IL-2 quantified by ELISA; human primary T cells stimulated with αCD3 and αCD28, 24 hours. As for the experimental part: Human primary T cell isolation and culture: Human primary T cells were prepared as follows. Whole blood was obtained from a healthy volunteer, mixed 1:1 with PBS, layered on to Ficoll Hypaque (Amersham Pharmacia Biotech, Piscataway, N.J., Catalog #17-1440-03) in 2:1 blood/PBS:ficoll ratio and centrifuged for 30 minutes at 4° C. at 1750 rpm. The cells at the serum: ficoll interface were recovered and washed twice with 5 volumes of PBS. These freshly isolated human peripheral blood mononuclear cells were cultured in Yssel's medium containing 40 U/mL IL2 in a flask pre-coated with 1 μg/mL αCD3 and 5 μg/mL αCD28 (Anti-Human CD3, BD Pharmingen Catalog #555336, Anti-Human CD28, Beckman Coulter Catalog #IM1376). The cells were stimulated for 3-4 days, then transferred to a fresh flask and maintained in RPMI (RPMI-1640 with L-Glutamine; Mediatech, Inc., Herndon Va., cat. #10-040-CM) with 10% FBS and 40 U/mL IL-2. The primary T-cells were then washed twice with PBS to remove the IL-2.
Primary T cell stimulation and IL2 ELISA: Human primary T cells (100,000 cells per well) were pre-incubated with or without test compound in Yssel's medium for 1 hour at 37° C. Cells were then stimulated by transferring them to round-bottom 96-well plates pre-coated with 1 μg/ml αCD3 and 5 μg/ml αCD28. For counter assay, cells were instead stimulated by adding 8× stock solutions of PMA and ionomycin in Yssels (for final concentrations of 0.5 ng/ml PMA and 0.1 uM ionomycin, both from Calbiochem). Cells were incubated at 37° C. for 24 hours before 100 μL supernatants were harvested for quantification of IL-2 by ELISA using Human IL-2 Duoset ELISA Kit from R and D Systems, Cat. # DY202E.
In general terms: An ELISA detects its analyte on a solid surface through an enzyme-linked reagent.
Usually IC50 stands for the concentration that gives 50% inhibition. A lower IC50 goes with greater potency. For the molecule `CC(C)Oc1ccc(Nc2ncc(F)c(NC3CC(C)(C)NC(C)(C)C3)n2)cc1-n1nnn(C)c1=O` [I-11, 5-fluoro-n2-{4-isopropoxy-[3-(4-methyl)-1,2,3,4-tetrazol-5-one-1-yl]}phenyl-n4-(2,2,6,6-tetramethylpiperidin-4-yl)-2,4-pyrimidinediamine], the IC50 was less than 500 nM. The same measure, in the same setting: then `CC1(C)CC(Nc2nc(Nc3ccc(F)c(-n4nnn(CCF)c4=O)c3)ncc2F)CC(C)(C)N1` [I-7, 5-fluoro-n2-{4-fluoro-3-[4-(2-fluoroethyl)-1,2,3,4-tetrazol-5-one-1-yl]}phenyl-n4-(2,2,6,6-tetramethylpiperidin-4-yl)-2,4-pyrimidinediamine], with 510 to 2990 nM; and `CC(C)Oc1c(-n2nnn(C)c2=O)cc(Nc2ncc(F)c(NC3CC(C)(C)NC(C)(C)C3)n2)cc1C(F)(F)F` [I-51, N2-(4-isopropoxy-3-(4-methyl-4,5-dihysro-5-oxo-1H-tetrazol-1-yl)-5-trifluoromethylphenyl)-5-fluoro-N4-(2,2,6,6-tetramethylpiperidin-4-yl)pyrimidine-2,4-diamine], with less than 500 nM.

The same assay, now with this note: T-cell; IL-2 quantified by ELISA; human primary T cells stimulated with αCD3 and αCD28, 24 hours.
Regarding `COc1cc(Nc2ncc(F)c(NC3CC(C)(C)NC(C)(C)C3)n2)cc(-n2nnn(C)c2=O)c1` [I-32, N2-{5-methody-[3-(4-methyl)-1,2,3,4-tetrazol-5-one-1-yl]}phenyl-5-fluoro-N4-(2,2,6,6-tetramethylpiperidin-4-yl)-2,5-pyrimidinediamine], the IC50 was less than 500 nM. On the same count and under the same terms, as for `Cn1nnn(-c2cc(Cl)cc(Nc3ncc(F)c(NC4CC(C)(C)NC(C)(C)C4)n3)c2)c1=O` [I-37, N2-{5-chloro-[3-(4-methyl)-1,2,3,4-tetrazol-5-one-1-yl]}phenyl-5-fluoro-N4-(2,2,6,6-tetramethylpiperidin-4-yl)-2,4-pyrimidinediamine], the figure is 510 to 2990 nM; as for `Cn1nnn(-c2cc(Nc3ncc(C#N)c(NC4CC(C)(C)NC(C)(C)C4)n3)c(F)cc2C2CC2)c1=O` [I-15, 5-cyano-N2-{4-cyclopropyl-6-fluoro[3-(4-methyl)-1,2,3,4-tetrazol-5-one-1-yl]}phenyl-N4-(2,2,6,6-tetramethylpiperidin-4-yl)-2,4-pyrimidineamine], less than 500 nM. The same measure, in the same setting: as for `Cn1nnn(-c2cc(Nc3ncc(C#N)c(NC4CC(C)(C)NC(C)(C)C4)n3)cc(F)c2C2CC2)c1=O` [I-62, N2-(4-cyclopropyl-5-fluoro-3-(4-methyl-4,5-dihydro-5-oxo-1H-tetrazol-1-yl)phenyl)-N4-(2,2,6,6-tetramethylpiperidin-4-yl)pyrimidine-2,4-diamino-5-carbonitrile], the figure is less than 500 nM; as for `CN1C(C)(C)CC(Nc2nc(Nc3cc(-n4nnn(C)c4=O)c(C4CC4)cc3F)ncc2F)CC1(C)C` [I-16, N2-{4-cyclopropyl-6-fluoro-[3-(4-methyl)-1,2,3,4-tetrazol-5-one-1-yl]}phenyl-5-fluoro-N4-(1,2,2,6,6-pentamethylpiperidin-4-yl)-2,4-pyrimidineamine], less than 500 nM; as for `Cc1c(Cl)cc(Nc2ncc(F)c(NC3CC(C)(C)NC(C)(C)C3)n2)cc1-n1nnn(C)c1=O` [I-55, N2-(5-chloro-4-methyl-3-(4-methyl-4,5-dihysro-5-oxo-1H-tetrazol-1-yl)phenyl)-5-fluoro-N4-(2,2,6,6-tetramethylpiperidin-4-yl)pyrimidine-2,4-diamine], less than 500 nM. The same measure, in the same setting: then `Cn1nnn(-c2cc(Nc3ncc(C#N)c(NC4CC(C)(C)NC(C)(C)C4)n3)cc(C(F)(F)F)c2C2CC2)c1=O` [I-41, 5-cyano-N2-{4-cyclopropyl-5-trifluoromethyl-[3-(4-methyl)-1,2,3,4-tetrazol-5-one-1-yl]}phenyl-N4-(2,2,6,6-tetramethylpiperidin-4-yl)-2,4-pyrimidinediamine], with less than 500 nM; and `CN1C(C)(C)CC(Nc2nc(Nc3ccc(Cl)c(-n4nnn(C)c4=O)c3)ncc2F)CC1(C)C` [I-29, N2-{4-chloro-[3-(4-methyl)-1,2,3,4-tetrazol-5-one-1-yl]}phenyl-5-fluoro-N4-(1,2,2,6,6-pentamethylpiperidin-4-yl)-2,4-pyrimidinediamine], with less than 500 nM; and `Cn1nnn(-c2cc(Nc3ncc(F)c(NC4CC(C)(C)NC(C)(C)C4)n3)ccc2OCC2(C)COC2)c1=O` [I-28, 5-fluoro-N2-{4-(3-methyloxetan-3-yl)methody-3-[(4-methyl)-1,2,3,4-tetrazol-5-one-1-yl]}phenyl-N4-(2,2,6,6-tetramethylpiperidin-4-yl)-2,4pyrimidinediamine], with less than 500 nM.

`Cn1nnn(-c2cc(Nc3ncc(F)c(NC4CC(C)(C)NC(C)(C)C4)n3)ccc2OC2CCOCC2)c1=O` [I-27, N2-{4-(tetrahydropyran-4-yloxy)-[3-(4-methyl)-1,2,3,4-tetrazol-5-one-1-yl]}phenyl-5-fluoro-N4-(2,2,6,6-tetramethylpyridin-4-yl)-2,4-pyrimidinediamine] came in with an IC50 of less than 500 nM. The same measure, in the same setting: then `CN1C(C)(C)CC(Nc2nc(Nc3ccc(OC(C)(C)C(F)(F)F)c(-n4nnn(C)c4=O)c3)ncc2F)CC1(C)C` [I-18, 1-(2-(1,1,1-trifluoro-2-methylpropan-2-yloxy)-5-(4-(1,2,2,6,6-pentamethylpiperidin-4-ylamino)-5-fluoropyrimidin-2-ylamino)phenyl)-4-methyl-1H-tetrazol-5(4H)-one], with less than 500 nM; and `CN1C(C)(C)CC(Nc2nc(Nc3ccc(OC4CCOCC4)c(-n4nnn(C)c4=O)c3)ncc2F)CC1(C)C` [I-26], with less than 500 nM; and `CN1C(C)(C)CC(Nc2nc(Nc3cc(OC4COC4)cc(-n4nnn(C)c4=O)c3)ncc2F)CC1(C)C` [I-24, 1-(3-(4-(1,2,2,6,6-pentamethylpiperidin-4-ylamino)-5-fluoropyrimidin-2-ylamino)-5-(oxetan-3-yloxy)phenyl)-4-methyl-1H-tetrazol-5(4H)-one], with less than 500 nM. Still for that read-out and setting: then `CC(C)n1nnn(-c2cc(Nc3ncc(F)c(NC4CC(C)(C)N(C)C(C)(C)C4)n3)ccc2F)c1=O` [I-5, 5-fluoro-n2-{4-fluoro-[3-(4-isopropyl)-1,2,3,4-tetrazol-5-one-1-yl]}phenyl-n4-(1,2,2,6,6-pentamethylpiperidin-4-yl)-2,4-pyrimidinediamine], with 510 to 2990 nM; and `CN1C(C)(C)CC(Nc2nc(Nc3cc(-n4nnn(C)c4=O)c(C4CC4)c(C(F)(F)F)c3)ncc2C#N)CC1(C)C` [I-42, 5-cyano-N2-{4-cyclopropyl-5-trifluoromethyl-[3-(4-methyl)-1,2,3,4-tetrazol-5-one-1-yl]}phenyl-N4-(1,2,2,6,6-pentamethylpiperidin-4-yl)-2,4-pyrimidinediamine], with less than 500 nM.

With `CNC(=O)c1cc(Nc2ncc(F)c(NC3CC(C)(C)N(C)C(C)(C)C3)n2)cc(-n2nnn(C)c2=O)c1C` [I-64, 5-(5-fluoro-4-(1,2,2,6,6-pentamethylpiperidin-4-ylamino)pyrimidin-2-ylamino)-N,2-dimethyl-3-(4-methyl-5-oxo-4,5-dihydro-1H-tetrazol-1-yl)benzamide], the IC50 was less than 500 nM.
